Measurements: paper PMC6018617, “Probing GABAA receptors with inhibitory neurosteroids” (Neuropharmacology, 2018)

Columns and labels:
[1] = tested on: T1, ρ1-260-γ2S; assay: whole-cell patch clamp, HEK cells; type: cell-based, Homo sapiens; Mus musculus; conditions: co-applied with GABA EC80 (200 μM)
T1 construct: gene GABRR1; single-chain fusion: human rho1 ECD to residue 260, mouse gamma2S TMD; homopentamer in HEK cells

[2] = biological target: T2, α4β2δ (Mus musculus, UniProt P22933+P63137+Q9D6F4); assay: whole-cell patch clamp, HEK cells; type: cell-based; conditions: read-out: PS IC50
T2 construct: gene Gabra4; full-length subunits in pRK5, co-expressed in HEK cells; heteropentamer; with Gamma-aminobutyric acid receptor subunit delta
T2 sequence (Q9D6F4 36-552): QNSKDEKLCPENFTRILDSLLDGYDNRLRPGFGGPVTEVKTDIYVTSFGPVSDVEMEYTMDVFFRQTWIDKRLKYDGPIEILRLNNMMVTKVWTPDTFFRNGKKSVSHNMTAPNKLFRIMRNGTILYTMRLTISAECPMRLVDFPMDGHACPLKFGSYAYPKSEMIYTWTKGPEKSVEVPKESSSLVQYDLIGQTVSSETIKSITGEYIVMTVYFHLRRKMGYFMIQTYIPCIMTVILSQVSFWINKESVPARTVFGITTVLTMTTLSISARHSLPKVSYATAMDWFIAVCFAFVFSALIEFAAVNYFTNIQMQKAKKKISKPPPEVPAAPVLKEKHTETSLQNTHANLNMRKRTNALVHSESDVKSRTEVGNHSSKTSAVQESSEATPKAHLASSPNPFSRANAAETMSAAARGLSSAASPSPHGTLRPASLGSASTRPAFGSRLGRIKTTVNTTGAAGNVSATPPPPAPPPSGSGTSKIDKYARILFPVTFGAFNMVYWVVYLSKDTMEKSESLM
T2 sequence (P63137 26-512): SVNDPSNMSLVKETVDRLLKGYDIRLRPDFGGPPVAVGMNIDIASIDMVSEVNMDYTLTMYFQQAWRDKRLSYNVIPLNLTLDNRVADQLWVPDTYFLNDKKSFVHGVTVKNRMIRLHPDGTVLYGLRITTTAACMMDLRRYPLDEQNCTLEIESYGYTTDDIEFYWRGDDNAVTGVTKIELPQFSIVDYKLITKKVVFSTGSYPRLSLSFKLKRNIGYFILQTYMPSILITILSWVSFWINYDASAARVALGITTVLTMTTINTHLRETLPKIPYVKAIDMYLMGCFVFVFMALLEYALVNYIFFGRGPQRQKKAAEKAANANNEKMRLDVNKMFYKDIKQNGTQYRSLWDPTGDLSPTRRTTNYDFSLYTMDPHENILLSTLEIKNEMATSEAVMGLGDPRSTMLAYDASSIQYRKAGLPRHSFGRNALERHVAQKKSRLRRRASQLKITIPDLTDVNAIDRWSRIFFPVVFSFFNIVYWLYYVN
T2 sequence (P22933 25-449): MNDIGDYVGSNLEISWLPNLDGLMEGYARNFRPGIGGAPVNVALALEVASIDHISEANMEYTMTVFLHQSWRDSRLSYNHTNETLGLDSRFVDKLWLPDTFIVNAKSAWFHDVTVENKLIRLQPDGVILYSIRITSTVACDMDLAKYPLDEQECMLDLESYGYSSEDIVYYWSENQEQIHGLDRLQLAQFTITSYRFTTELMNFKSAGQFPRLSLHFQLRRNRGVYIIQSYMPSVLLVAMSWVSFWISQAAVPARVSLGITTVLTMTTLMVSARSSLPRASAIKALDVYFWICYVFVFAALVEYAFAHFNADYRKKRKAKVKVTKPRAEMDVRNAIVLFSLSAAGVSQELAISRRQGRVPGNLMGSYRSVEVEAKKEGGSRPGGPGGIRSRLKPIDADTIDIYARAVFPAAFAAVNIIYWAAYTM
Text: whole-cell patch clamp, HEK cells on α4β2δ

[3] = biological target: T3, α1β2γ2L (Mus musculus, UniProt P22723+P62812+P63137, P62812:V283S); assay: whole-cell patch clamp, HEK cells; type: cell-based
T3 construct: gene Gabra1; full-length subunits in pRK5, co-expressed 1:1:1 in HEK cells; heteropentamer; with Gamma-aminobutyric acid receptor subunit gamma-2

[4] = biological target: T4, ρ1 (Homo sapiens, UniProt P24046, P315V); assay: whole-cell patch clamp, HEK cells; type: cell-based
T4 construct: gene GABRR1; full-length subunit in pRK5, HEK cells; homopentamer
T4 sequence (P24046 22-479 P315V): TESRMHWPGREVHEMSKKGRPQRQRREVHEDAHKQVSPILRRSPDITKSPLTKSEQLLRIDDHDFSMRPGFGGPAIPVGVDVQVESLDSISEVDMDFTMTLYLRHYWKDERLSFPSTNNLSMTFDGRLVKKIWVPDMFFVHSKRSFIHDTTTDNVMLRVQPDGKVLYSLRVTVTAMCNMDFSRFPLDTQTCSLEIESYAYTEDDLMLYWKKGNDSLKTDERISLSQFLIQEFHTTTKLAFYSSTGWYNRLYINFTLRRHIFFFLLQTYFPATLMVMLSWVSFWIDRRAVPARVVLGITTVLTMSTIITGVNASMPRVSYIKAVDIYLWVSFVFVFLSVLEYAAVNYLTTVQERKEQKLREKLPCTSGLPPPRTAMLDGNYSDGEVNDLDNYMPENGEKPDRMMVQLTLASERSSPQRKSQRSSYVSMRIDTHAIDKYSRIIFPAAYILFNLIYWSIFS

[5] = tested on: T5, ρ1-260-α1; assay: whole-cell patch clamp, HEK cells; type: cell-based, Homo sapiens; Mus musculus; conditions: steady-state current, co-applied with GABA EC80 (30 μM), pH 7.4, room temperature
T5 construct: gene GABRR1; single-chain fusion: human rho1 ECD to residue 260 (start of M1), mouse alpha1 TMD with linkers; homopentamer in HEK cells

[6] = biological target: T6, ρ1 (Homo sapiens, UniProt P24046); assay: whole-cell patch clamp, HEK cells; type: cell-based; conditions: read-out: PS IC50
T6 construct: gene GABRR1; full-length subunit in pRK5, HEK cells; homopentamer
T6 sequence (P24046 22-479): as the sequence (P24046 22-479 P315V) above, with V294P counted along it
Text: whole-cell patch clamp, HEK cells on ρ1

[7] = biological target: T7, α5β2γ2L (Mus musculus, UniProt P22723+P63137+Q8BHJ7); assay: whole-cell patch clamp, HEK cells; type: cell-based; conditions: read-out: PS IC50
T7 construct: gene Gabra5; full-length subunits in pRK5, co-expressed in HEK cells; heteropentamer; with Gamma-aminobutyric acid receptor subunit gamma-2
Text: whole-cell patch clamp, HEK cells on α5β2γ2L

[8] = biological target: T8, α1β2 (Mus musculus, UniProt P62812+P63137); assay: whole-cell patch clamp, HEK cells; type: cell-based; conditions: read-out: PS IC50
T8 construct: gene Gabra1; full-length subunits in pRK5, co-expressed in HEK cells; heteropentamer without gamma
T8 sequence (P62812 28-455): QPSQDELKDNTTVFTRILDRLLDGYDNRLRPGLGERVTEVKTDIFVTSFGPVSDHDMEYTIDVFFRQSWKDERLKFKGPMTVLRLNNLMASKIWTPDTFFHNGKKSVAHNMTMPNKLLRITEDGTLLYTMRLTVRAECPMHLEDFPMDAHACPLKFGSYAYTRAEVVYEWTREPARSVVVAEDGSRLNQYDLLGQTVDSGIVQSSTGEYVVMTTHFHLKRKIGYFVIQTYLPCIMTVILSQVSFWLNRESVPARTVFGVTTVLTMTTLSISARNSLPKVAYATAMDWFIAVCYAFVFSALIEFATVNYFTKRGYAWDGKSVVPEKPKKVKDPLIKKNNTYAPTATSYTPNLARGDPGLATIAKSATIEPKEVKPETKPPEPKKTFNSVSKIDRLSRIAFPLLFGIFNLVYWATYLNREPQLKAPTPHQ
T8 sequence (P63137 26-512): as the sequence (P63137 26-512) above
Text: whole-cell patch clamp, HEK cells on α1β2

[9] = biological target: T9, α1β3γ2L (Mus musculus, UniProt P22723+P62812+P63080); assay: whole-cell patch clamp, HEK cells; type: cell-based; conditions: read-out: PS IC50
T9 construct: gene Gabra1; full-length subunits in pRK5, co-expressed in HEK cells; heteropentamer; with Gamma-aminobutyric acid receptor subunit gamma-2
Text: whole-cell patch clamp, HEK cells on α1β3γ2L

[10] = biological target: T10, α1β2γ2L (Mus musculus, UniProt P22723+P62812+P63137); assay: whole-cell patch clamp, HEK cells; type: cell-based; conditions: read-out: PS IC50
T10 construct: gene Gabra1; full-length subunits in pRK5, co-expressed 1:1:1 in HEK cells; heteropentamer; with Gamma-aminobutyric acid receptor subunit gamma-2
T10 sequence (P62812 28-455): as the sequence (P62812 28-455) above
T10 sequence (P63137 26-512): as the sequence (P63137 26-512) above
T10 sequence (P22723 39-474): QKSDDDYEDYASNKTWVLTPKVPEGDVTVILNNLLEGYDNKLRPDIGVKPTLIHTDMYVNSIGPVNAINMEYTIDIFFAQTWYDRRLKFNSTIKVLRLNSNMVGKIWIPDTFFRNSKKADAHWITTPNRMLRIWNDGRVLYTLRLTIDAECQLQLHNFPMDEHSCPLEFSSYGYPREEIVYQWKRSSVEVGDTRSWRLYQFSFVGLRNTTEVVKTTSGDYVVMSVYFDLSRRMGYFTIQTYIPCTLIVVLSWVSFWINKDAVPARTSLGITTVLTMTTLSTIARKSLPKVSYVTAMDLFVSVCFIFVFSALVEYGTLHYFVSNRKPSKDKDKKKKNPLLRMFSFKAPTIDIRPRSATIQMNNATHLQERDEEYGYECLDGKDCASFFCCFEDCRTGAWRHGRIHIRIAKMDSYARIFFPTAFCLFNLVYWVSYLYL
Text: whole-cell patch clamp, HEK cells on α1β2γ2L

[11] = biological target: T11, α3β2γ2L (Mus musculus, UniProt P22723+P26049+P63137); assay: whole-cell patch clamp, HEK cells; type: cell-based; conditions: read-out: PS IC50
T11 construct: gene Gabra3; full-length subunits in pRK5, co-expressed in HEK cells; heteropentamer; with Gamma-aminobutyric acid receptor subunit gamma-2
T11 sequence (P26049 29-492): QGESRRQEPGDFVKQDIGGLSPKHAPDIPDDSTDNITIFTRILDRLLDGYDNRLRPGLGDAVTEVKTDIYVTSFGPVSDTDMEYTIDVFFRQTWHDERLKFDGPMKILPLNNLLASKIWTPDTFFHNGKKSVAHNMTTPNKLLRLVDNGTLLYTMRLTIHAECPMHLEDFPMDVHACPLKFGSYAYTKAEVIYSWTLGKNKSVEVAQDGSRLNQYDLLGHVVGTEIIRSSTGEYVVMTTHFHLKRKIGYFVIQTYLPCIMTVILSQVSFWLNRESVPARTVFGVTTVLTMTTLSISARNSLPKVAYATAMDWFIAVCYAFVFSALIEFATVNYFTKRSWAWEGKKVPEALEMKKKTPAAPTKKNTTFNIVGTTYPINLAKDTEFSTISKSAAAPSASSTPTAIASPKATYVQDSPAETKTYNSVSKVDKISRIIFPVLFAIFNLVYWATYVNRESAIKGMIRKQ
T11 sequence (P63137 26-512): as the sequence (P63137 26-512) above
T11 sequence (P22723 39-474): as the sequence (P22723 39-474) above
Text: whole-cell patch clamp, HEK cells on α3β2γ2L

[12] = biological target: T12, α6β2δ (Mus musculus, UniProt P16305+P22933+P63137); assay: whole-cell patch clamp, HEK cells; type: cell-based; conditions: read-out: PS IC50
T12 construct: gene Gabra6; full-length subunits in pRK5, co-expressed in HEK cells; heteropentamer; with Gamma-aminobutyric acid receptor subunit delta
T12 sequence (P16305 20-453): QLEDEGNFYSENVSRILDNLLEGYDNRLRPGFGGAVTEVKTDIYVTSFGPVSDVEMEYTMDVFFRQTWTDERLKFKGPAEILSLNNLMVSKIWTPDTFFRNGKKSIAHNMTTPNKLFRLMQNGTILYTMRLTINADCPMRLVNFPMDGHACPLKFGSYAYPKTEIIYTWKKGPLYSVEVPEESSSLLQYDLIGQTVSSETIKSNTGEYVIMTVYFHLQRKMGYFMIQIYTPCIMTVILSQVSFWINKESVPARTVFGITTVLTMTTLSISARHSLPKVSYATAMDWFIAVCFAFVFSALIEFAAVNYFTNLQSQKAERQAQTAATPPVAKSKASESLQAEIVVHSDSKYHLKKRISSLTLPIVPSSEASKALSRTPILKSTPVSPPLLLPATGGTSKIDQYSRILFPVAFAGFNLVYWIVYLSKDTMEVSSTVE
T12 sequence (P63137 26-512): as the sequence (P63137 26-512) above
T12 sequence (P22933 25-449): as the sequence (P22933 25-449) above
Text: whole-cell patch clamp, HEK cells on α6β2δ

[13] = biological target: T13, α2β2γ2L (Mus musculus, UniProt P22723+P26048+P63137); assay: whole-cell patch clamp, HEK cells; type: cell-based; conditions: read-out: PS IC50
T13 construct: gene Gabra2; full-length subunits in pRK5, co-expressed in HEK cells; heteropentamer; with Gamma-aminobutyric acid receptor subunit gamma-2
T13 sequence (P26048 29-451): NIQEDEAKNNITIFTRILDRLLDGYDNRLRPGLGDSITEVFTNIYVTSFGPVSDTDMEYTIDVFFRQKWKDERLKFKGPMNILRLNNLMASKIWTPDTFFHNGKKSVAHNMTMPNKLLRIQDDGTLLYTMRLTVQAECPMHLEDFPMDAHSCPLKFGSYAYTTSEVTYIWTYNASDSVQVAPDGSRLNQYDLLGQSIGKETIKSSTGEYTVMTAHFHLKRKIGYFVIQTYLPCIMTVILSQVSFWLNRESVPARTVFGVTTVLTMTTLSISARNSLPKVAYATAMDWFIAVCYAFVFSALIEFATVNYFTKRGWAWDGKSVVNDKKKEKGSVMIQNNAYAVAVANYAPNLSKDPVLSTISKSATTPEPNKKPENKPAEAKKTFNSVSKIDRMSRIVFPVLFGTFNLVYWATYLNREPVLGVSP
T13 sequence (P63137 26-512): as the sequence (P63137 26-512) above
T13 sequence (P22723 39-474): as the sequence (P22723 39-474) above
Text: whole-cell patch clamp, HEK cells on α2β2γ2L

[14] = biological target: T14, β3 homomer (Mus musculus, UniProt P63080); assay: whole-cell patch clamp, HEK cells; type: cell-based; conditions: 100 μM PS co-applied with 500 μM pentobarbitone
T14 construct: gene Gabrb3; full-length subunit in pRK5, HEK cells; homopentamer
T14 sequence (P63080 26-473): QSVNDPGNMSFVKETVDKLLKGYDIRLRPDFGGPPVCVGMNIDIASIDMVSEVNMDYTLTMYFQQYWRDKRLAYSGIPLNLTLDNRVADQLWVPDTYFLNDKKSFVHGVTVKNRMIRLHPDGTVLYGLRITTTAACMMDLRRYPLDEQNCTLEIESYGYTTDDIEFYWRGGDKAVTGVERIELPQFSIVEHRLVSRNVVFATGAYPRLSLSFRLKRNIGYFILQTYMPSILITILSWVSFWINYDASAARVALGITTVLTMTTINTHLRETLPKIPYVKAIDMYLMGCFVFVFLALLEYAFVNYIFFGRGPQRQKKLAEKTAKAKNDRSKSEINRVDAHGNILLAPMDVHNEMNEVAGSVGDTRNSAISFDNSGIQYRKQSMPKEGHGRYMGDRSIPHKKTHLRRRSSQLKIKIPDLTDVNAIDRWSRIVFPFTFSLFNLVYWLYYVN

[15] = biological target: T11, α3β2γ2L; assay: whole-cell patch clamp, HEK cells, Hill fit; type: cell-based
Text: whole-cell patch clamp, HEK cells, Hill fit on α3β2γ2L

[16] = biological target: T12, α6β2δ; assay: whole-cell patch clamp, HEK cells, Hill fit; type: cell-based
Text: whole-cell patch clamp, HEK cells, Hill fit on α6β2δ

[17] = biological target: T10, α1β2γ2L; assay: whole-cell patch clamp, HEK cells; type: cell-based; conditions: GABA EC100 (1 mM), PTX pre-applied then co-applied; text calls it picrotoxin, reagent list picrotoxinin

In the case of CC(=O)[C@H]1CC[C@H]2[C@@H]3CC=C4C[C@@H](OS(=O)(=O)O)CC[C@]4(C)[C@H]3CC[C@]12C [pregnenolone sulphate], the “% of control peak current at 100 μM PS” value [1] is reported as 39.2 ± 5.1%, the IC50 [2] is reported as 1.3 ± 0.1 µM and the IC50 [3] is reported as 35.5 ± 8.2 µM. The IC50 [4] was 6 ± 0.6 µM, the IC50 [5] was 7.9 ± 1.7 µM and the IC50 [6] was greater than 300 µM. For the same compound, the IC50 [7] was 0.7 ± 0.1 µM, the IC50 [8] was 1.3 ± 0.07 µM and the IC50 [9] was 1 ± 0.08 µM. The IC50 [10] was 0.4 ± 0.05 µM, the IC50 [11] was 0.6 ± 0.05 µM and the IC50 [12] was 1.3 ± 0.1 µM. The IC50 [13] was 0.4 ± 0.05 µM and the “whole-cell patch clamp, HEK cells” value [14] was “neurosteroid caused a concentration-dependent block of the PB-induced peak current”.

NCCCC(=O)O [GABA] gave an EC50 [15] of 64.6 ± 14.3 µM and an EC50 [16] of 0.2 ± 0.02 µM.

With picrotoxinin the “% of control peak current at 10 μM PTX” value [17] was 37.3 ± 8.1%.
